From patent US20240343753A1, “THERAPEUTIC COMPOUNDS” (Regents of the University of Minnesota, priority 2023, published 2024)
pIC50: −log10 of the molar value.

Legend:
K562 cells = assay: 5hmC dot blot in K562 cells treated with inhibitor; format: cell-based, human; conditions: 5 μM compound, 24 hours, genomic DNA dot blot, normalized to DMSO
Procedure: Cells were grown in MEM media supplemented with 10% FBS (Gibco by Life Technologies TM, #16140-071) and AntibioticAntimycotic (Gibco by Life Technologies TM, #15240062) at 37° C. under 5% CO2. Solutions of inhibitors were prepared in dimethyl sulfoxide (DMSO) were incubated with cells at the specific concentration and duration prior to collection and extraction of genomic DNA.
For cellular assays, genomic DNA was extracted using DNA Blood/Tissue Kit, denatured, and subjected to dot blotting analysis using antibody against 5hmC (Active Motif, #39769) as previously described.^22 Briefly, 2 μg of purified DNA was denatured at 100° C. and mixed 1:1 with 2M NaOAc. DNA was loaded to the membrane, washed, and blocked with 5% NFM. Primary antibody for 5-hmC was incubated overnight and detected by fluorescence. The DNA spotted membrane was then stained with 0.02% methylene blue in 0.5 M sodium acetate (pH 5.0) for DNA loading control. The same protocol was followed for in vitro assays.
K562 cells, a TET proficient leukemia model, were treated with 5 μM of respective compound for 24 hours. Genomic DNA was extracted and 5hmC levels were quantified via dot blot (FIG. 1A and FIG. 1B).

[1] = target: T1, recombinant human TET1 catalytic domain (Homo sapiens, UniProt Q8NFU7); assay: In vitro TET1 activity assay, LC-MS/MS quantitation of 5hmC; format: biochemical; conditions: for TET inhibition (in words): TET1 catalytic domain, hemimethylated oligomer substrate, FIG. 2; for reduced hmC production in comparison to DMSO control: 30 minute incubation
T1 construct: enzymatically active catalytic domain of human TET1; purchased Active Motif 31417
T1 sequence (Q8NFU7 1418-2136 limits assumed): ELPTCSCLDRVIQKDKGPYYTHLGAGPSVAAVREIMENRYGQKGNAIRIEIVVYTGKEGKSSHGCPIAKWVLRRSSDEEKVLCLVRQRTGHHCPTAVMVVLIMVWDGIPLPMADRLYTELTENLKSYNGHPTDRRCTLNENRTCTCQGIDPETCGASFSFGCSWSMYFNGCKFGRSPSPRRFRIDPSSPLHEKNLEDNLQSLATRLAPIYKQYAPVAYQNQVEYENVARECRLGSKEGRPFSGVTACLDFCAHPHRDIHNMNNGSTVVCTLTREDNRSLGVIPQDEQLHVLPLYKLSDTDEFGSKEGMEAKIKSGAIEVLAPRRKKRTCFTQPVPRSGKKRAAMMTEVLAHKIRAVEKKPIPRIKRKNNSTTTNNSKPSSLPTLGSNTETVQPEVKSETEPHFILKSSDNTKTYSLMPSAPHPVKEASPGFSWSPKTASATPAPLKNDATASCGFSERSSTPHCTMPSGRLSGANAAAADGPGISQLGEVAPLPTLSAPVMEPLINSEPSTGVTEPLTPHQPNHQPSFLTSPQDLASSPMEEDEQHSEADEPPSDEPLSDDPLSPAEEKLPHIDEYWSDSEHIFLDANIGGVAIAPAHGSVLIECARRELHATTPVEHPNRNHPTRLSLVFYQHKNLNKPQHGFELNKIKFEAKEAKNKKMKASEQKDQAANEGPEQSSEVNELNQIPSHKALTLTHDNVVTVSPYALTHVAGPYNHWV
Procedure: (§1) For in vitro TET assays, 10 pmol of 16-mer hemi-methylated synthetic dsDNA oligomer designed after the Rassfla tumor suppressor gene promotor (5′-AATTAGAA[5meC]GCTCCTT3′) was incubated with 2×TET reaction buffer (50 mM HEPES [pH 7.9], 100 mM NaCl, 75 μM Fe(NH4)2(SO4)2, 2 mM ascorbate, 10 μM α-ketoglutarate, 1 mM DTT), recombinant human TET1 or TET2 catalytic domain (0.2 μg, 2.3 pmol, 115 nM) and 5% DMSO (or inhibitor in DMSO) on a 20 μL scale. Timing was achieved by withholding protein until the ‘start’ of the incubation window. Reactions were completed on a dry block at 37° C. for 30 minutes. Reactions were terminated at the ‘end’ of the incubation window by transferring reaction tubes to dry ice to snap-freeze the reaction until all replicates were completed. Upon completion, all samples were heat-inactivated at 90° C. for 10 minutes and then dried entirely in SpeedVac concentrator. Sample were then prepared for LCMS or dot blot analysis. HPLC-ESI-MS/MS quantitation of 5mC and 5hmC.
Quantitation of 5hmC is based on methodology previously described in Seiler et al., with slight modification.^21 Dried enzymatic reaction samples were reconstituted with mQ-water and spiked with 1 pmol each of 5-Methyl-2′-deoxycytidine-d3 and 5-(Hydroxymethyl)-2′deoxycytidine-d3. Nucleotide digestion enzyme mix and buffer were added per product guidelines on a 20 μL scale. Samples were digested for 60 min at 37° C. on a dry block. Following digestion, samples were filtered on nanosep 10K Omega filters. The samples were then dried entirely and resuspended in 100 μL mQ-water for offline HPLC cleanup to enrich 5hmC. An Atlantis T3 column (Waters, 4.6×150 mm, 3 μm) was eluted at a flow of 0.9 mL/min with a linear gradient previously described of 5 mM NH4CHO2 buffer, pH 4.0 (A) and MeOH (B). Fractions containing 5meC and 5hmC were collected and pooled before analysis by isotope dilution HPLC-ESI-MS/MS. Pooled samples were dried and reconstituted in 2 mM ammonium formate buffer (NH4CHO2) with a Dionex Ultimate 3000UHPLC (Thermo Fisher) interfaced with a Thermo TSQ Quantis mass spectrometer (Thermo Fisher) flowing 2 mM NH4CHO2 (A) and ACN (B) at 15 μL/min through a Zorbax SB-C18 column (Agilent, 0.5×150 mm, 3 μm) with the gradients as previously described. 5meC and 5-d3-meC eluted at 5.1 minutes while 5hmC and 5-d3-hmC eluted at 3.5 minutes. Quantitation was completed monitoring MS/MS transitions m/z 242.1 [M+H^+]→m/z 126.1 [M-deoxyribose+H^+] for 5meC, m/z 245.2 [M+H^+]→m/z 129.0 [M-deoxyribose+H^+] for 5-d3-meC, m/z 258.1 [M+H^+]→m/z 142.1 [M-deoxyribose+H^+] for 5hmC, m/z 261.1 [M+H^+]→m z 145.1 [M-deoxyribose+H^+] for 5-d3-hmC. […]
Compounds 13b and 15 were taken forward and incubated with recombinant TET1 and TET2 protein to further evaluate their potential TET inhibitory activity. The compounds 13b and 15 were taken forward and evaluated in an in vitro TET activity assay with the enzymatically active catalytic domain of human TET1 using a hemimethylated synthetic oligomer substrate. Following a 30 minute enzymatic incubation time in the presence or absence of inhibitor, the reactions were halted through denaturation, and levels of 5mC 5hmC were quantified via LCMS/MS via direct isotope dilution (Seiler, C. L., et al., Biochemistry 2018, 57 (42), 6061-6069).

[2] = target: T2, recombinant human TET2 catalytic domain (Homo sapiens, UniProt Q6N021); assay: In vitro TET2 activity assay, LC-MS/MS quantitation; format: biochemical; conditions: 30 minute incubation, FIG. 3; read-out: IC50, TET2 mediated conversion of 5mC to 5hmC
T2 construct: recombinant human TET1 or TET2 catalytic domain; purchased Active Motif 31418
Procedure: as §1, with “Upon completion, all samples were heat-inactivated at 90° C. for 10 minutes and then dried entirely in SpeedVac concentrator. Sample were then prepared for LCMS or dot blot analysis.” left out
Quantitation of 5hmC is based on methodology previously described in Seiler et al., with slight modification.^21 Dried enzymatic reaction samples were reconstituted with mQ-water and spiked with 1 pmol each of 5-Methyl-2′-deoxycytidine-d3 and 5-(Hydroxymethyl)-2′deoxycytidine-d3. […] Quantitation was completed monitoring MS/MS transitions m/z 242.1 [M+H^+]→m/z 126.1 [M-deoxyribose+H^+] for 5meC, m/z 245.2 [M+H^+]→m/z 129.0 [M-deoxyribose+H^+] for 5-d3-meC, m/z 258.1 [M+H^+]→m/z 142.1 [M-deoxyribose+H^+] for 5hmC, m/z 261.1 [M+H^+]→m z 145.1 [M-deoxyribose+H^+] for 5-d3-hmC. […]

SMILES | lowered the relative levels of 5hmC (K562 cells) [%] | TET inhibition (in words) [1] | reduced hmC production in comparison to DMSO control ([1]; 10 μM inhibitor) [%] | reduced hmC production in comparison to DMSO control ([1]; 100 μM inhibitor) [%] | reduced hmC production in comparison to DMSO control ([1]; 500 μM inhibitor) [%] | pIC50 [2]
Nc1nc(=O)n([C@H]2C[C@H](O)[C@@H](CO)O2)cc1C#CCCNC(=O)/C=C/C(=O)O [Compound 14, (E)-4-((4-(4-amino-1-((2R,4S,5R)-4-hydroxy-5-(hydroxymethyl)tetrahydrofuran-2-yl)-2-oxo-1,2-dihydropyrimidin-5-yl)but-3-yn-1-yl)amino)-4-oxobut-2-enoic acid] | 26±21 |  |  |  |  | 
COC(=O)/C=C/C(=O)N(O)CCC#Cc1cn([C@H]2C[C@H](O)[C@@H](CO)O2)c(=O)nc1N [Compound 11, methyl (E)-4-((4-(4-amino-1-((2R,4S,5R)-4-hydroxy-5-(hydroxymethyl)-tetrahydrofuran-2-yl)-2-oxo-1,2-dihydropyrimidin-5-yl)but-3-yn-1-yl)(hydroxy)amino)-4-oxobut-2-enoate] | 30±8 |  |  |  |  | 
Nc1nc(=O)n([C@H]2C[C@H](O)[C@@H](CO)O2)cc1C#CCCN(O)C(=O)/C=C/C(=O)O [Compound 15, (E)-4-((4-(4-amino-1-((2R,4S,5R)-4-hydroxy-5-(hydroxymethyl)tetrahydrofuran-2-yl)-2-oxo-1,2-dihydropyrimidin-5-yl)but-3-yn-1-yl)(hydroxy)amino)-4-oxobut-2-enoic acid] | 47±45 | dose-dependent TET inhibition |  |  |  | 
Nc1nc(=O)n([C@H]2C[C@H](O)[C@@H](CO)O2)cc1C#CCCN(O)C(=O)CCC(=O)O [Compound 13b, 4-((4-(4-amino-1-((2R,4S,5R)-4-hydroxy-5-(hydroxymethyl)tetrahydrofuran-2-yl)-2-oxo-1,2-dihydropyrimidin-5-yl)but-3-yn-1-yl)(hydroxy)amino)-4-oxobutanoic acid] | 55±20 | dose-dependent TET inhibition | 22±5 | 30±4 | 85±3 | ~3.00
